# According to PMC4223075, “A Conserved Peptide Pattern from a Widespread Microbial Virulence Factor Triggers Pattern-Induced Immunity in Arabidopsis” (PLoS Pathogens, 2014):
# No end group written: not given here.
# System: Arabidopsis leaves
# Assay: Ethylene formation in Arabidopsis leaves / leaf discs
# Format: cell-based, Arabidopsis thaliana
# Conditions: for EC50: synthetic peptides, Arabidopsis leaves, at least six different peptide concentrations, means ± SD of three replicates
# Method: For MAPK activity assays, infiltrated plant material was harvested after 15 minutes and frozen in liquid nitrogen before used for protein extraction in 20 mM Tris-HCl pH 7.5, 150 mM NaCl, 1 mM EDTA, 1% Triton X-100, 0,1% SDS, 5 mM DTT, Complete Protease Inhibitor Mini, EDTA-free (Roche, Mannheim), PhosStop Phosphatase Inhibitor Cocktail (Roche, Mannheim). After pelleting the cell debris (10 min, 16000 g, 4°C), the supernatant (30 µg protein) was separated on a 10% SDS-PAGE and transferred to a nitrocellulose membrane and activated MAPK6, 3 and 4 were detected by western blotting using the anti phospho p44/42-MAPK antibody from rabbit (Cell Signaling Technology, The Netherlands). For ROS burst measurements two leaf pieces, floated on ddH2O overnight, were placed in one well of a 96-well plate, containing 100 µl of a 20 µM L-012 and 0.5 µg ml^−1 peroxidase solution. Background was measured shortly in a 96-well Luminometer, (Mithras LB 940, Berthold Technologies) before elicitation with a peptide solution or control treatment respectively. The detection of ethylene was performed as described. Leaf pieces were incubated in 20 mM MES buffer, pH 5.7. To visualize callose apposition, leaves were treated as described and harvested 24 hours after infiltration of a peptide solution. Quantification of callose was performed by counting selected pixels and calculated in % relative to the respective image section of the leaf surface. Pictures were analyzed using Photoshop CS6 Magic tool, hereby removing background and leaf-veins within a certain color range. (Use: white, Mode: normal, Opacity: 100%). Medium alkalinization in suspension-cultured Arabidopsis cells and detection of GUS enzyme activity in PR1::GUS transgenic Arabidopsis plants were performed as described previously, [43]. Surface-sterilized Arabidopsis Col-0 seeds were grown in ½ MS liquid medium supplemented with 1 µM of nlp20 (PpNLP) peptide or its orthologs respectively, and flg22 or H2O serving as controls. Root length of two weeks-old seedlings was determined upon transfer onto agar plates.
sequence,measurement,value
AIMYAWYFPKDSPVTGLGHRHDWE [compound 19],EC50,18 ± 10 nM
AIMYSWYFPKDSAVTGLGHRHDWE [compound 27],EC50,76 ± 45 nM
AIMYSWYFPKDSPVTGLAHRHDWE [compound 32],EC50,220 ± 78 nM
AIAYSWYFPKDSPVTGLGHRHDWE [compound 17],EC50,42 ± 9 nM
AIMYSWYFPKDSPVTGLGARHDWE [compound 33],EC50,48 ± 34 nM
AIMYSWAFPKDSPVTGLGHRHDWE [compound 21],EC50,2630 ± 208 nM
AIMYSWYFPKDSPVTGLGHRHAWE [compound 36],EC50,6.2 ± 5.6 nM
AIMASWYFPKDSPVTGLGHRHDWE [compound 18],EC50,1500 ± 436 nM
AIMYSWYFPKDSPVTALGHRHDWE [compound 30],EC50,23 ± 7.6 nM
AIMYSWYFPKDSPVTGAGHRHDWE [compound 31],EC50,24 ± 8 nM
AIMYSWYFPKDAPVTGLGHRHDWE [compound 26],EC50,57 ± 28 nM
AAMYSWYFPKDSPVTGLGHRHDWE [compound 16],EC50,1570 ± 252 nM
RVATYNGVYAIMYSWYFPKD [compound 7],EC50,84 ± 11 nM
MYSWYFPKDSPVTGLGHR [compound 11],EC50,1550 ± 328 nM
SWYFPKDSPVTGLGH [peptide 4],EC50,> 100000 nM
AIMYSWYFPKDSPVTGLGHRHDWA [compound 38],EC50,7.3 ± 1.7 nM
IMYSWYFPKDSPVTGLGHR [compound 10],EC50,133 ± 10 nM
AIMYSWYFPKDSPVTGLGHAHDWE [compound 34],EC50,283 ± 40 nM
WIMYSWYFPKDSPVTGLGHRHDWE [compound 15],EC50,55 ± 24 nM
AIMYSWYFPKDSPVTGLGHRHDAE [compound 37],EC50,7.3 ± 1.8 nM
AIMYSWYFPKASPVTGLGHRHDWE [compound 25],EC50,97 ± 36 nM
AIMYSWYFPKDSPVAGLGHRHDWE [compound 29],EC50,25 ± 15 nM
YAIMYSWYFPKDSPV [compound 3],EC50,217 ± 65 nM
SWYFPKDSPVTGLGHR [compound 14],EC50,> 100000 nM
AIMYSWYAPKDSPVTGLGHRHDWE [compound 22],EC50,5.4 ± 3 nM
AIMYSWYFPKDSPVTGLGHRADWE [compound 35],EC50,7.7 ± 1.7 nM
YSWYFPKDSPVTGLGHR [peptide 12],"elicitor activity (ethylene production in Arabidopsis leaf disks), in words",inactive
same,EC50,> 50000 nM
AIMYSWYFPKDSPATGLGHRHDWE [compound 28],EC50,30 ± 11 nM
AIMYSWYFPADSPVTGLGHRHDWE [compound 24],EC50,89 ± 31 nM
KDSPVTGLGHRHDWE [compound 5],EC50,> 100000 nM
AIMYSWYFAKDSPVTGLGHRHDWE [compound 23],EC50,307 ± 153 nM
